According to ChEMBL document CHEMBL1147530, “Antimalarial activities of (+)-deoxoartemisitene and its novel C-11, 13 derivatives” (Bioorg Med Chem Lett, 2004):
In brackets after ≈: the same amount, converted by molar mass.

Assays:
Plasmodium falciparum [1] = experiment: In vitro antimalarial activity against chloroquine-sensitive Plasmodium falciparum 3D7; assay type: functional, organism-based
Plasmodium falciparum [2] = experiment: In vitro antimalarial activity against chloroquine-resistant Plasmodium falciparum K1; assay type: functional, organism-based

Row | SMILES | IC50 (Plasmodium falciparum [1]) [µg/mL] | IC50 (Plasmodium falciparum [2]) [µg/mL]
1 | C[C@H]1[C@H](OC(=O)CCC(=O)O)O[C@@H]2O[C@@]3(C)CC[C@H]4[C@H](C)CC[C@@H]1[C@@]24OO3 [ARTESUNATE] | 0.0002 (≈ 0.00052 µM) | 0.0006 (≈ 0.00156 µM)
2 | C[C@@H]1CC[C@H]2[C@@H](C)C(=O)O[C@@H]3O[C@@]4(C)CC[C@@H]1[C@]32OO4 [ARTEMISININ] | 0.01 (≈ 0.0354 µM) | 0.002 (≈ 0.00708 µM)
3 | C[C@@H]1CC[C@H]2[C@H](C=O)CO[C@@H]3O[C@]4(C)CC[C@@H]1[C@]32OO4 | 2.02 (≈ 7.15 µM) | 0.46 (≈ 1.63 µM)
4 | C[C@@H]1CC[C@H]2[C@@H](COC[C@H]3CO[C@@H]4O[C@]5(C)CC[C@H]6[C@H](C)CC[C@@H]3[C@@]46OO5)CO[C@@H]3O[C@@]4(C)CC[C@@H]1[C@]32OO4 | 0.04 (≈ 0.0726 µM) | 0.02 (≈ 0.0363 µM)
5 | C[C@@H]1CC[C@H]2[C@@H](CO)CO[C@@H]3O[C@]4(C)CC[C@@H]1[C@]32OO4 | < 0.0001 | 0.0006 (≈ 0.00211 µM)
6 | C=C1CO[C@@H]2O[C@]3(C)CC[C@H]4[C@H](C)CC[C@@H]1[C@@]24OO3 | 0.02 (≈ 0.0751 µM) | 0.02 (≈ 0.0751 µM)
7 | C[C@@H]1CC[C@H]2[C@@H](COS(C)(=O)=O)CO[C@@H]3O[C@]4(C)CC[C@@H]1[C@]32OO4 | 0.09 (≈ 0.248 µM) | 0.06 (≈ 0.166 µM)
8 | C[C@@H]1CC[C@H]2[C@H](CBr)CO[C@@H]3O[C@]4(C)CC[C@@H]1[C@]32OO4 | 0.0002 (≈ 0.000576 µM) | < 0.0001
9 | C[C@@H]1CC[C@H]2[C@@H](CBr)CO[C@@H]3O[C@]4(C)CC[C@@H]1[C@]32OO4 | 0.01 (≈ 0.0288 µM) | 0.003 (≈ 0.00864 µM)
10 | C[C@@H]1CC[C@H]2[C@@]3(CO[C@@H]4O[C@]5(C)CC[C@@H]1[C@]42OO5)CO3 | 0.03 (≈ 0.106 µM) | 0.01 (≈ 0.0354 µM)
11 | C[C@@H]1CC[C@H]2C(=O)CO[C@@H]3O[C@]4(C)CC[C@@H]1[C@]32OO4 | 0.02 (≈ 0.0745 µM) | 0.006 (≈ 0.0224 µM)
12 | C[C@@H]1CC[C@H]2[C@@H](C=O)CO[C@@H]3O[C@]4(C)CC[C@@H]1[C@]32OO4 | 0.12 (≈ 0.425 µM) | 3.01 (≈ 10.7 µM)
13 | C[C@@H]1CC[C@@H]2[C@]34OO[C@@](C)(CC[C@@H]13)O[C@H]4OC[C@]2(C)O | 0.07 (≈ 0.246 µM) | 0.05 (≈ 0.176 µM)
14 | C[C@@H]1CC[C@H]2[C@@H](C(=O)O)CO[C@@H]3O[C@]4(C)CC[C@@H]1[C@]32OO4 | 1.09 (≈ 3.65 µM) | 0.65 (≈ 2.18 µM)
15 | Cc1ccc(S(=O)(=O)OC[C@H]2CO[C@@H]3O[C@]4(C)CC[C@H]5[C@H](C)CC[C@@H]2[C@@]35OO4)cc1 | 0.3 (≈ 0.684 µM) | 0.05 (≈ 0.114 µM)
16 | CCO[C@H]1O[C@@H]2O[C@@]3(C)CC[C@H]4[C@H](C)CC[C@@H]([C@H]1C)[C@@]24OO3 [ARTEMOTIL] | < 0.0001 | < 0.0001
17 | C[C@@H]1CC[C@H]2[C@H](CO)CO[C@@H]3O[C@]4(C)CC[C@@H]1[C@]32OO4 | 0.06 (≈ 0.211 µM) | 0.05 (≈ 0.176 µM)
